Legend:
[1] = tested on: PKC activity of rat PC-12 cells; assay: Intracellular PKC assay in PC-12 cells; type: cell-based
Description: (§1) According to the method described in a publication [Kanno T et al., J Lipid Res 47 (6):1146-1156, 2006], the PKC activity of rat PC-12 cells was assayed. The cells were treated with each DCP-LA optical isomer at 37° C. for 10 min. The treatment was performed in an extracellular solution [137 mM NaCl, 5.4 mM KCl, 10 mM MgCl2, 5 mM ethyleneglycol-bis(2-aminoethylether)-N,N,N′,N′-tetraacetic acid (EGTA), 0.3 mM Na2HPO4, 0.4 mM K2HPO4 and 20 mM 4-(2-hydroxyethyl)-1-piperazin-ethanesulfonic acid, pH 7.2]. Then, the cells were rinsed with 100 μl of phosphate-buffered saline (PBS) in the absence of Ca^2+, and incubated in an extracellular solution (50 μl) containing 50 μg/ml digitonin, 25 mM glycerol 2-phosphate, 200 μM ATP and 100 μM synthetic PKC substrate peptide (Pyr-Lys-Arg-Pro-Ser-Gln-Arg-Ser-Lys-Tyr-Leu (SEQ ID NO: 1); MW, 1,374; Pyr: […]) at 37° C. for 15 min. […] A substrate peptide peak and a new resultant product peak were detected at the absorbance of 214 nm (SPD-10Avp UV-VIS detector, Shimadzu Co., Kyoto, Japan). […] The molecular weight was calculated from the two standard spectra of bradykinin (MW 1060.2) and substance P (MW 1672.9).
(§2) The areas of the non-phosphorylated and phosphorylated substrate peptides were measured (total area corresponds to the concentration of PKC substrate peptide used). […]

PKC-ε = biological target: T1, PKC-ε (Rattus norvegicus, UniProt P09216); assay: Intracellular PKC assay after knockdown of PKC-ε (siRNA) in PC-12 cells; type: cell-based; conditions: PKC-ε siRNA vs NC siRNA, FIG. 3
T1 construct: PC-12 cells were transfected with PKC-ε siRNA or NC siRNA; endogenous in cells; host or cells: rat PC-12 cells
T1 sequence (P09216 1-737): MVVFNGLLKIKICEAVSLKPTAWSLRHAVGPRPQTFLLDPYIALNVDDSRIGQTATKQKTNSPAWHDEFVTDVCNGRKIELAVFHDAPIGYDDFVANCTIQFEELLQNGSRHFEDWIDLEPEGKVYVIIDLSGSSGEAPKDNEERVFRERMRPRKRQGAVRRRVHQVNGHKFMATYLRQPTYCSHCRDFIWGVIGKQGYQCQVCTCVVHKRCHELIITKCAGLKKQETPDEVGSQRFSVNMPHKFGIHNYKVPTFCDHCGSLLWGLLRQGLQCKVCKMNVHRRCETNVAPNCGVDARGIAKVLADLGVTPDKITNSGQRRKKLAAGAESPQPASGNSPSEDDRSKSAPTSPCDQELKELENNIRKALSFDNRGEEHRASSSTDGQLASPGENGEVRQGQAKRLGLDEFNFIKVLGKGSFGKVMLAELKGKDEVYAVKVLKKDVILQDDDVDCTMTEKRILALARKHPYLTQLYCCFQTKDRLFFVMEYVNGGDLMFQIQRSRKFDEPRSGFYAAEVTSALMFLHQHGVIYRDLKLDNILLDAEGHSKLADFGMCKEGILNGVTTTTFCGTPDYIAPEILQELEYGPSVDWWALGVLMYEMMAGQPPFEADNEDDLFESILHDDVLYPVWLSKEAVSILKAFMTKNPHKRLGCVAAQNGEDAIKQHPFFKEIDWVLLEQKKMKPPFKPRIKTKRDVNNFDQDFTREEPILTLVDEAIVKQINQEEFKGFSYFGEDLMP
Description: as §1, §2

- PKC activation induced by the compound after knocking down PKC-ε (PKC-ε): inhibited by knocking down PKC-ε
SMILES: CCCCC[C@@H]1C[C@@H]1C[C@@H]1C[C@H]1CCCCCCCC(=O)O [α,β-DCP-LA, 8-[(1R,2S)-2-{(1R,2R)-2-pentylcyclopropylmethyl}-cyclopropyl]octanoic acid]
- PKC activation action on PC-12 cells compared to the other optical isomers ([1]; 100 nM, 37° C., 10 min, FIG. 1): most strongly
- concentration at which the PKC activation action reaches maximum (bell-shaped) ([1]; PC-12 cells, FIG. 2): about 100 nM

Reference: patent US9012500B2, “PKC-ε activator” (Nishizaki Bioinformation Research Institute, priority 2010, dated 2015)
